These results are taken from US8129371B2, “Thienopyrimidine and pyrazolopyrimidine compounds and their use as mTOR kinase and PI3 kinase inhibitors” (Wyeth LLC, priority 2007, dated 2012).

pIC50: −log10 of the molar value. Like-named read-outs stand apart in the source and are kept apart here. Some results are limits rather than exact numbers.

Test [1] addresses T1, Human mTOR (FLAG-TOR) (Homo sapiens, UniProt P42345).
T1 construct: FLAG
Briefly: Human mTOR kinase assay with purified enzyme, DELFIA format. It is filed as biochemical. The procedure, abridged:
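Purified FLAG-mTOR in HEPES pH 7.4 buffer with 10 mM MnCl2 was preincubated with inhibitor and reacted 2 h at room temperature with His6-S6K substrate, then stopped with EDTA/EGTA. Phospho-T389 S6K detected by DELFIA with Eu-labelled antibody (40 ng/mL) after plate capture; inhibition computed from signal.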

Test [2] has as its system breast line MDA468. The experiment in a line: In vitro cell culture growth assay (MTS), MDA468. It counts as cell-based. The conditions noted are these: Homo sapiens, 72 h, MDA468 cells, three days after drug treatment. An outline of the steps:
(§1)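 Cells were plated and, one day later, treated with inhibitors. Three days after treatment, viable cell density was measured by MTS dye conversion, read as absorbance at 490 nm. Effects are expressed as percent of control growth versus vehicle-treated cells on the same plate.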

The target in test [3] is T2, PI3K (Homo sapiens, UniProt O00329).
T2 construct: PI3 Kinase δ IC50; other: PI3 Kinase δ; other: PI3 Kinase δ isoform, fluorescence polarization
T2 sequence (O00329 1-1044): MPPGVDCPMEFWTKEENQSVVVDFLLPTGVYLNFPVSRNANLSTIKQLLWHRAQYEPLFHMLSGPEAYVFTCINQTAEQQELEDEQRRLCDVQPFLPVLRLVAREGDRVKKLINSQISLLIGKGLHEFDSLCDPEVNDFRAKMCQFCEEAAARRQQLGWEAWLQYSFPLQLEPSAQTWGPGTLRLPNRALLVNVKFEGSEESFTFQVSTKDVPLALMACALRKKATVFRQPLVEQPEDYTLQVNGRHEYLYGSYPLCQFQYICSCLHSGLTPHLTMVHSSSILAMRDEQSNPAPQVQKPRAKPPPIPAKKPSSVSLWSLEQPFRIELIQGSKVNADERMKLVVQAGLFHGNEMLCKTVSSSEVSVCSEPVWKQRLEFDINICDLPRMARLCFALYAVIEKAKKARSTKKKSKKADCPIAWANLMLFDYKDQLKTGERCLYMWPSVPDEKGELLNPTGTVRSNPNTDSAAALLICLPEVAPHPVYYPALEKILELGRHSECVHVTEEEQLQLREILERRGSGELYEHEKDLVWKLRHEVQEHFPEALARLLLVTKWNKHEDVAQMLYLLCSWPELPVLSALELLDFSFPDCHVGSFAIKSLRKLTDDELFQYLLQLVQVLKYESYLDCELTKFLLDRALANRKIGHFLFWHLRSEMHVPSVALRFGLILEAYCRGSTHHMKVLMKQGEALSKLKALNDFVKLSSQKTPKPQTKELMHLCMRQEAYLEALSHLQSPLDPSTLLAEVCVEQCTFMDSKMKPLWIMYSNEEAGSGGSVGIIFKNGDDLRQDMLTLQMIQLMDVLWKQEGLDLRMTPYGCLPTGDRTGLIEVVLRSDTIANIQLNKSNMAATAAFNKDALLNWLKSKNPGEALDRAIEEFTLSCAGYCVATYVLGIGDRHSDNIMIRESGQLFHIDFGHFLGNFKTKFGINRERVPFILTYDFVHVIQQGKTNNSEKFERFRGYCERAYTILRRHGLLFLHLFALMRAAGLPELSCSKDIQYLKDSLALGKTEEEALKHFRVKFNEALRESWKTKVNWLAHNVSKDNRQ
The experiment in a line: Fluorescence polarization assay for PI3K. It is filed as biochemical. An outline of the steps: (§2)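 PI3K was preincubated with compound (final DMSO 1%), and the reaction was started with PIP2/ATP substrate and run 30–60 min. It was stopped with a detector mix giving 10 nM red probe and 70 nM GST-GRP.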

Test [4] deals with T3, PI3K (Homo sapiens, UniProt P42338).
T3 construct: PI3 Kinase β IC50; other: PI3 Kinase β; other: PI3 Kinase β isoform, fluorescence polarization
The experiment in a line: Fluorescence polarization assay for PI3K. It is filed as biochemical. An outline of the steps:
as §2
For orientation: Fluorescence polarisation rises when a labelled molecule tumbles more slowly, as on binding a larger partner.

The target in test [5] is T4, PI3K (Homo sapiens, UniProt P42336).
T4 construct: PI3 Kinase α IC50; other: PI3 Kinase α; other: PI3 Kinase α isoform, fluorescence polarization
Briefly: Fluorescence polarization assay for PI3K. Particulars: read-out: PI3 Kinase α IC50. It is filed as biochemical. An outline of the steps:
as §2

Test [6] deals with T5, PI3K (Homo sapiens, UniProt P48736).
T5 construct: PI3 Kinase γ IC50; other: PI3 Kinase γ; other: PI3 Kinase γ isoform, fluorescence polarization
Briefly: Fluorescence polarization assay for PI3K. It counts as biochemical. Particulars: read-out: PI3 Kinase γ IC50. An outline of the steps: as §2

For test [7], the system named is prostate line LNCap. Briefly: In vitro cell culture growth assay (MTS), LNCap. It counts as cell-based. The conditions noted are these: Homo sapiens, LNCaP, 72 h, LNCap cells, three days after drug treatment. The procedure, abridged: as §1
For test [8], the system named is acute lymphoblastic leukemia xenograft. The conditions noted are these: NOS/SCID xenograft mouse model; Teachey et al, Blood 2006; cited from earlier work.
[9] abbreviates: purified human mTOR enzyme, DELFIA format.
The mark [10] stands for this setting: PI3 Kinase δ isoform, fluorescence polarization.
Where [11] appears, read: PI3 Kinase β isoform, fluorescence polarization.
Setting [12] is: PI3 Kinase α isoform, fluorescence polarization.
Where [13] appears, read: PI3 Kinase γ isoform, fluorescence polarization.

T3 sequence (P42338 whole entry, canonical isoform): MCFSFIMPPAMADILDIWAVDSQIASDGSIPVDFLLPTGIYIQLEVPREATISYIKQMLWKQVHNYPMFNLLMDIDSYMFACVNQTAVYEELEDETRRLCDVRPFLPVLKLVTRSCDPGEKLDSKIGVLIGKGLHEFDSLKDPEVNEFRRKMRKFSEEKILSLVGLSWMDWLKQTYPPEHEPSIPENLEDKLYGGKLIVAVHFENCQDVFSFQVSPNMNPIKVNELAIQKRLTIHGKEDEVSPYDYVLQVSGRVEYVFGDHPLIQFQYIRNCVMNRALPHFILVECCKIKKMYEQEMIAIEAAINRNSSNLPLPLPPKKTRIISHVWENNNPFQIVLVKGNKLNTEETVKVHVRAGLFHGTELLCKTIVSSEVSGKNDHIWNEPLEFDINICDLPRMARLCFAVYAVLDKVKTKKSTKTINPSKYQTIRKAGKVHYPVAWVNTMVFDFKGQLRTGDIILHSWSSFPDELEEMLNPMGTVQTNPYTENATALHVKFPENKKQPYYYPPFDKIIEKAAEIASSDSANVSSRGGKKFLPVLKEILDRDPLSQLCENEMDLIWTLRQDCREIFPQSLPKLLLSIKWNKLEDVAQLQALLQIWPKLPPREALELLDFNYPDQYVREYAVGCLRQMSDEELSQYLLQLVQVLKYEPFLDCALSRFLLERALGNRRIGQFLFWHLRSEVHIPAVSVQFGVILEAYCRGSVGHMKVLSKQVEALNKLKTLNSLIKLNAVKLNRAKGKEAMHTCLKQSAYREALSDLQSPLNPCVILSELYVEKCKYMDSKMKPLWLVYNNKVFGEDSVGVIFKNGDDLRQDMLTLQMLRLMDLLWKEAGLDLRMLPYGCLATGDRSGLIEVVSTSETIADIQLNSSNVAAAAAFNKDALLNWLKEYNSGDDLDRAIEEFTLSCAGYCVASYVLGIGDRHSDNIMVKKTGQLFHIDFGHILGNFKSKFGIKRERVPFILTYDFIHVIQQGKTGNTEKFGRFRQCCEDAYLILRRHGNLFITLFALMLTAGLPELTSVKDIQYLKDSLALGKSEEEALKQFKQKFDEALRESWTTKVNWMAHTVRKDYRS
T5 sequence (P48736 whole entry, canonical isoform): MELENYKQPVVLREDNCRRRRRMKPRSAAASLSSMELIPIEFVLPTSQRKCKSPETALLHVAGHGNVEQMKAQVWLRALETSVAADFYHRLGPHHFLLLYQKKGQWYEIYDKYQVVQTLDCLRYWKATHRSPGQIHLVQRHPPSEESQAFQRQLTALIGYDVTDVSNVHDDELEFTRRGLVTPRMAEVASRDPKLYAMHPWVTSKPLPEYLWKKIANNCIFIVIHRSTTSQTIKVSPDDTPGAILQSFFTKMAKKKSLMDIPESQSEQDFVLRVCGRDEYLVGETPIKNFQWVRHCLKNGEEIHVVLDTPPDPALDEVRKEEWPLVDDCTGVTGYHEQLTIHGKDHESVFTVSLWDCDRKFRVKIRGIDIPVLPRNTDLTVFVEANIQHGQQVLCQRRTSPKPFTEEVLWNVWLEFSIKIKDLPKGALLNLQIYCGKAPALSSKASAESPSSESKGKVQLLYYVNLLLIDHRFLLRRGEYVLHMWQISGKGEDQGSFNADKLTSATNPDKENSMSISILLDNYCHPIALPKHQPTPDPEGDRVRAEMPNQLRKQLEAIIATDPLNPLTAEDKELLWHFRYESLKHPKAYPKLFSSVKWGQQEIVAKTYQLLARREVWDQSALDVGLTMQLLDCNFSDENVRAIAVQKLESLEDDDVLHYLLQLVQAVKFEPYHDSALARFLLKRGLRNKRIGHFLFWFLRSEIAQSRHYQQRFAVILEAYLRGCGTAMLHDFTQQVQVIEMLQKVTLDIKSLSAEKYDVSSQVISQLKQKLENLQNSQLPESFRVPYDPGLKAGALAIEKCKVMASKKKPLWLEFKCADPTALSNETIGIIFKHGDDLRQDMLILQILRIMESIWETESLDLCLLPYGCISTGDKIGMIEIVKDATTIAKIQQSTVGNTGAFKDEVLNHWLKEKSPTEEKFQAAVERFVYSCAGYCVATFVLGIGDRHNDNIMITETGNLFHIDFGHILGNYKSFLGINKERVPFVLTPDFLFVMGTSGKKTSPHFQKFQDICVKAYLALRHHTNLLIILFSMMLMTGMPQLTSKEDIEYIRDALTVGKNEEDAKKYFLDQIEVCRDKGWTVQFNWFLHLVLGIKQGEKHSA
T4 sequence (P42336 whole entry, canonical isoform): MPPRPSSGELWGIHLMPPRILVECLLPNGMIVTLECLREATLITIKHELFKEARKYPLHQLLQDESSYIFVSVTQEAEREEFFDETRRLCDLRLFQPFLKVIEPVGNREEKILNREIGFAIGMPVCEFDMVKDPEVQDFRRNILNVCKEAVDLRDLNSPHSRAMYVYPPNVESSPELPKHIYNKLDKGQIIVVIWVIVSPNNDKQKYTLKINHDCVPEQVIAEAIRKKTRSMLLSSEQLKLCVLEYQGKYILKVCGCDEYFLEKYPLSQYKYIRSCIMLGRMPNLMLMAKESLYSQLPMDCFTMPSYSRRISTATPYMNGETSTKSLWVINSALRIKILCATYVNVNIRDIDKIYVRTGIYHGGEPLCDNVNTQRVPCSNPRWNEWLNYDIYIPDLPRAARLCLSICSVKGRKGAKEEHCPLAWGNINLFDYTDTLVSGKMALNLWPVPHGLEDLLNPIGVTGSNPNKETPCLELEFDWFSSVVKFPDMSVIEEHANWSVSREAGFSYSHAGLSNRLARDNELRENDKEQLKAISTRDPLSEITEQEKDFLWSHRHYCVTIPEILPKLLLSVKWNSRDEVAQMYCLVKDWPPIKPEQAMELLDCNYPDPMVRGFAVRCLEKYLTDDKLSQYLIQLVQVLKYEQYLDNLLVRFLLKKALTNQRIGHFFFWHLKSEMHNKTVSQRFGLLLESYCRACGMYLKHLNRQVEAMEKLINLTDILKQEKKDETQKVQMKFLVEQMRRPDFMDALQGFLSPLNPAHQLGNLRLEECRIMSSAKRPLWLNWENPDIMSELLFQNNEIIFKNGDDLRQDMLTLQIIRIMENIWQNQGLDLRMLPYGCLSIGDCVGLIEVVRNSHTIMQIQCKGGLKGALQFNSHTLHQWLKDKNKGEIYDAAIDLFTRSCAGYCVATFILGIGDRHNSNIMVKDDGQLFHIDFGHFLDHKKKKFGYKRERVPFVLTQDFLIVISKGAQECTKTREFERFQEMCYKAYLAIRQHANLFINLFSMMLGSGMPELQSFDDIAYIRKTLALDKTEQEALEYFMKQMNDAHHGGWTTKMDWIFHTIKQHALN

Turning to `CNC(=O)Nc1ccc(-c2nc(N3CC4CCC(C3)O4)c3cnn(C4CCC5(CC4)OCCO5)c3n2)cc1` [Example 105, 1-(4-(4-(8-oxa-3-azabicyclo[3.2.1]octan-3-yl)-1-(1,4-dioxaspiro[4.5]decan-8-yl)-1H-pyrazolo[3,4-d]pyrimidin-6-yl)phenyl)-3-methylurea], the negative logarithm of the IC50 (pIC50) – broadly, the negative decadic logarithm of the IC50, by convention in mol/L – in test [1] was 9.68; in test [2], 7.59; in test [3] (PI3 Kinase δ) it was 5.62; in test [4] (PI3 Kinase β), < 5.00; in test [5] (PI3 Kinase α), 5.93; in test [6] (PI3 Kinase γ) it was < 5.00.

For `O=C(Nc1ccc(-c2nc(N3CC4CCC(C3)O4)c3cnn(CC(F)(F)F)c3n2)cc1)OCCO` [Example 110, 2-hydroxyethyl {4-[4-(8-oxa-3-azabicyclo[3.2.1]oct-3-yl)-1-(2,2,2-trifluoroethyl)-1H-pyrazolo[3,4-d]pyrimidin-6-yl]phenyl}carbamate], the negative-log IC50 (pIC50) was 8.64 in test [7]; 9.22 in test [1]; 7.38 in test [2]; 4.92 in test [3] (PI3 Kinase δ); < 5.00 in test [4] (PI3 Kinase β); 5.98 in test [5] (PI3 Kinase α). Further, the pIC50 in test [6] (PI3 Kinase γ) was 4.92.

Turning to `O=C(Nc1ccc(-c2nc(N3C[C@@H]4C[C@H]3CO4)c3cnn(CC(F)(F)F)c3n2)cc1)NC1CC1` [Example 296, 1-cyclopropyl-3-(4-{4-[(1S,4S)-2-oxa-5-azabicyclo[2.2.1]hept-5-yl]-1-(2,2,2-trifluoroethyl)-1H-pyrazolo[3,4-d]pyrimidin-6-yl}phenyl)urea], the pIC50 in test [7] was 7.17; in test [1] (setting [9]), 8.73; in test [2] it was 6.86; in test [3] (setting [10]), 5.17; in test [4] (setting [11]) it was < 5.00; in test [5] (setting [12]), 5.39. Further, the pIC50 in test [6] (setting [13]) was 5.97.

For `COC1CCC(n2ncc3c(N4CC5CCC(C4)O5)nc(-c4ccc(NC(=O)NC5CC5)cc4)nc32)CC1` (centres unmarked) [Example 302, 1-cyclopropyl-3-{4-[1-(4-methoxycyclohexyl)-4-(8-oxa-3-azabicyclo[3.2.1]oct-3-yl)-1H-pyrazolo[3,4-d]pyrimidin-6-yl]phenyl}urea], the negative-log IC50 (pIC50) in test [7] is 8.70; in test [1] (setting [9]), 9.52; in test [2] it was 8.15; in test [3] (setting [10]), 5.76; in test [4] (setting [11]) it was < 5.00; in test [5] (setting [12]), 5.41. Further, the negative-log IC50 (pIC50) in test [6] (setting [13]) is 5.10.

Regarding `COC1CCC(n2ncc3c(N4CC5CCC(C4)O5)nc(-c4ccc(NC(=O)Nc5ccc(N6CCN(C)CC6)cc5)cc4)nc32)CC1` (centres unmarked) [Example 304, 1-{4-[1-(4-methoxycyclohexyl)-4-(8-oxa-3-azabicyclo[3.2.1]oct-3-yl)-1H-pyrazolo[3,4-d]pyrimidin-6-yl]phenyl}-3-[4-(4-methylpiperazin-1-yl)phenyl]urea], the negative logarithm of the IC50 (pIC50) in test [7] is > 9.00; in test [1] (setting [9]), 9.58; in test [2], 9.00; in test [3] (setting [10]) it was 6.70; in test [4] (setting [11]), 5.55; in test [5] (setting [12]), 6.62. Further, the pIC50 in test [6] (setting [13]) was 6.14.

In the case of `CO[C@H]1C[C@@H]2CC[C@@H](C)[C@@](O)(O2)C(=O)C(=O)N2CCCC[C@H]2C(=O)O[C@H]([C@H](C)C[C@@H]2CC[C@@H](OC(=O)C(C)(CO)CO)[C@H](OC)C2)CC(=O)[C@H](C)/C=C(\C)[C@@H](O)[C@@H](OC)C(=O)[C@H](C)C[C@H](C)/C=C/C=C/C=C/1C` [Torisel], the “activity in xenograft mouse model of acute lymphoblastic leukemia” value in test [8] is “active”.
